Source: BindingDB's records for doi:10.3109/14756360903179393 (University of Orleans, 2010)
One block for each molecule: values may come before it.

Columns and labels:
[1] = target: 5-hydroxytryptamine receptor 7 (Homo sapiens, UniProt P34969); assay: Radioligand Binding Assay
Description: (§1) 1H nuclear magnetic resonance (NMR) and 13C NMR spectra were recorded on a Bruker Avance DPX250 spectrometer (250.131 MHz), in CDCl3 and using tetramethylsilane asinternal standard; multiplicities were determined by the DEPT 135 sequence, and chemical shifts are reported in parts per million (ppm). Coupling constants are reported in units of hertz (Hz) if applicable. Infrared (IR) spectra were recorded on a PerkinElmer Paragon 1000 PC Fourier transform infrared (FTIR) spectrometer using NaCl films or KBr pellets. Mass spectra (MS) were recorded on a PerkinElmerSCIEX AOI 300 spectrometer. Flash chromatography was performed on Merck […] (230-400 mesh) silica gel under nitrogen pressure. Thin layer chromatography (TLC)was carried out on Merck silica gel 60 F254 precoated plates. Visualization was made with ultraviolet light at 254 nm.

[2] = target: T1, 5-hydroxytryptamine receptor 1A (Rattus norvegicus, UniProt P19327); assay: Radioligand Binding Assay
T1 sequence (P19327 whole entry): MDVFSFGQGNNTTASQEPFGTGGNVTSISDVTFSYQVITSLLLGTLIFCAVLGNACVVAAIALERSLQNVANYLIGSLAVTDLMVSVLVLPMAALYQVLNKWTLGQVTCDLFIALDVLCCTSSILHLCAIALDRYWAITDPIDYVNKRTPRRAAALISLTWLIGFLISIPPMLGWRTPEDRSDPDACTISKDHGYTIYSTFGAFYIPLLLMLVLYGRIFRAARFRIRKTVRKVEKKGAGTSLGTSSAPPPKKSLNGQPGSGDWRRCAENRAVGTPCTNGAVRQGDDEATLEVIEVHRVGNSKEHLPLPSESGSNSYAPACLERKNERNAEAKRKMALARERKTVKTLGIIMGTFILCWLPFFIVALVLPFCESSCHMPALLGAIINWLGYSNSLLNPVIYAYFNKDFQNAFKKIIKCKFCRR
Description: as §1

Chain of 5-hydroxytryptamine receptor 7 (P34969 whole entry): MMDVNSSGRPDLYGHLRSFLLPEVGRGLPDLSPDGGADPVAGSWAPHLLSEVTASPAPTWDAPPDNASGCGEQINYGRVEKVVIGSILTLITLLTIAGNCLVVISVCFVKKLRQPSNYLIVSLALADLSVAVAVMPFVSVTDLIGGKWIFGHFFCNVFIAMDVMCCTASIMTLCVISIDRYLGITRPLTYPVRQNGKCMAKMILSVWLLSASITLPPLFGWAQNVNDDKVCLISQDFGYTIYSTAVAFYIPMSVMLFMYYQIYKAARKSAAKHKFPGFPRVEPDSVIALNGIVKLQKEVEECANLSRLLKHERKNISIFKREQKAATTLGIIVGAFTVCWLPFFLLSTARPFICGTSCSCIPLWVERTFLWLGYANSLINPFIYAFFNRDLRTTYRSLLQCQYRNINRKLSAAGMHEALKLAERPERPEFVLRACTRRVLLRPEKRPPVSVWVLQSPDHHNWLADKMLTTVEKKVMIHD

Compound: Brc1ccc2ccn(CCN3CCCN4CCCCC4C3)c2n1 (stereo unspecified) [2-[2-(6-Bromopyrrolo[2,3-b]pyridin-1-yl)ethyl]decahydropyrido[1,2-a][1,4]diazepine (10)]
Ki [1]: 0.492 µM
Ki [2]: 14.9 µM

Compound: Clc1nccc2ccn(CCN3CCCN4CCCCC4C3)c12 (stereo unspecified) [2-[2-(7-Chloropyrrolo[2,3-c]pyridin-1-yl)ethyl]decahydropyrido[1,2-a][1,4]diazepine (6)]
Ki [1]: 5.31 µM
Ki [2]: 16 µM

Compound: Clc1ccc2ccn(CCN3CCCN4CCCCC4C3)c2n1 (stereo unspecified) [2-[2-(6-Chloropyrrolo[2,3-b]pyridin-1-yl)ethyl]decahydropyrido[1,2-a][1,4]diazepine (11)]
Ki [1]: 0.16 µM
Ki [2]: 15 µM

Compound: c1cnc2c(c1)ccn2CCN1CCCN2CCCCC2C1 (stereo unspecified) [2-(2-Pyrrolo[2,3-b]pyridin-1-ylethyl)decahydropyrido[1,2-a][1,4]diazepine (5)]
Ki [1]: 14 µM
Ki [2]: 24.5 µM

Compound: c1cc2ccn(CCN3CCCN4CCCCC4C3)c2cn1 (stereo unspecified) [2-[(2-Pyrrolo[2,3-c]pyridin-1-yl)ethyl]decahydropyrido[1,2-a][1,4]diazepine (7)]
Ki [1]: > 10 µM
Ki [2]: > 10 µM

Ki [1]: 23.6 µM
Compound: O=c1[nH]c2ccccc2n1CCN1CCCN2CCCCC2C1 (stereo unspecified) [1-[2-(Octahydropyrido[1,2-a][1,4]diazepin-2-yl)ethyl]-1,3-dihydrobenzo-imidazol-2-one (8)]
